The values that follow come from US7816520B2, “5,6-diphenyl-1,2,4-triazinic dimeric derivatives and the use thereof in the form of sun-protective agents” (Pierre Fabre Dermo-Cosmetique, priority 2004, dated 2010).

Entries after “also recorded” stand apart in the source; their conditions may differ.

Holding throughout (format): physicochemical
Data set [1] in a line: Solubility study in solvents or excipients used in cosmetics. Particulars: for Solubilities: Soluble (solvent in which the compound is soluble): value = solvent; for Solubilities: Insoluble (solvent in which the compound is insoluble): value = solvent named in the Insoluble column; for Solubilities: Soluble, DMSO: solvent DMSO; for Solubilities: Soluble, Transcutol: solvent Transcutol.

A short description of data set [2]: Spectral characteristics: molar extinction coefficient and specific absorbance (UV spectrophotometry in ethyl acetate). The following applies: 10 μg/ml; for Maximum molar extinction coefficient UVA / Maximum specific absorbance UVA: UVA band; for Maximum molar extinction coefficient UVB / Maximum specific absorbance UVB: UVB band; for Maximum specific absorbance UVA / Maximum specific absorbance UVB: A1cm^1%; for Wavelength of maximum molar extinction coefficient UVA / Wavelength of maximum molar extinction coefficient UVB / Wavelength of maximum specific absorbance UVA / Wavelength of maximum specific absorbance UVB: the 'at ...' part of the cell. The text has this:
The calculation of the molar extinction coefficient (ε) is made from the Beer-Lambert law:
[formula] Wherein: • A=absorbance • I0=intensity of the incident light • I=intensity of the transmitted light • ε=molar extinction (or molar absorbance) coefficient in M^−1 cm^−1 • l=path length in cm • c=concentration in mol/l
The molar extinction coefficient can be expressed with respect to a given mass of the product. It thus makes it possible to be able to compare the coefficients of extinction between products for the same given quantity. This quantity is 1% by weight. The molar extinction coefficient thus becomes the specific absorbance (A1cm^1%).
It is expressed as follows:
[formula] Wherein: • A1cm^1%=specific absorbance • ε=molar extinction coefficient • M=molar mass
The spectral characteristics of the compounds in comparison with commercial filters at a concentration of 10 μg/ml are summarized in tables 2-1 and 2-2.
Procedure: The products are dissolved in ethyl acetate to a concentration of 10 μg/ml. The spectra are measured using a dual-beam spectrophotometer (Varian CARY 50 Scan) between 290 nm and 400 nm.

A short description of data set [3]: Spectral distribution in UVA and UVB, 290 nm to 400 nm. The following applies: for Spectral distribution (UV bands absorbed): absorption spectra, FIGS. 1-3; for Absorption peaks: range from 290 nm to 400 nm. The text has this: The products tested are classified according to spectral distribution in UVA and UVB in a range from 290 nm to 400 nm. It is possible to differentiate them according to their spectral distribution: Products with a narrow spectrum: • Products absorbing in the range between 280 nm and 320 nm (UVB) • Products absorbing in the range between 320 nm and 400 nm (UVA) Products with a broad spectrum: • Products absorbing in UVB (280-320 nm) and UVA-II […] • Products covering UVB and UVA (280-400 nm).

For the compound `COc1ccc(-c2nnc(-c3ccc(-c4nnc(-c5ccc(OC)cc5)c(-c5ccc(OC)cc5)n4)cc3)nc2-c2ccc(OC)cc2)cc1` [WP40, 1,4-bis[5,6-(4,4′-dimethoxy)-diphenyl-1,2,4-triazin-3-yl]benzene], in data set [1], the “Solubilities: Soluble (solvent in which the compound is soluble)” value is “DMSO or hot DMF”; the “Solubilities: Insoluble (solvent in which the compound is insoluble)” value (“Solubilities: Insoluble” for short) was “Water and MeOH and CHCl3 and Acetone and Acetonitrile and Benzene”.
“1,4-bis[5,6-(4,4′-(2-{2-[2-(2-methoxy-ethoxy)-ethoxy]-ethoxy}-ethoxy)-)-diphenyl-1,2,4-triazin-3-yl]benzene [WP41]”: in data set [2], the “Maximum molar extinction coefficient UVA” value came out at 91400 M⁻¹ cm⁻¹, the “Maximum molar extinction coefficient UVB” value is 72000 M⁻¹ cm⁻¹, the “Maximum specific absorbance UVA” value is 669 and the “Maximum specific absorbance UVB” value came to 527. Besides, in data set [2], the “Wavelength of maximum molar extinction coefficient UVA” value is recorded as “at 330 nm”, the “Wavelength of maximum molar extinction coefficient UVB” value is reported as “at 305 nm”, the “Wavelength of maximum specific absorbance UVA” value is “at 330 nm” and the “Wavelength of maximum specific absorbance UVB” value was “at 305 nm”. Moreover, in data set [3], the “Spectral distribution (UV bands absorbed)” value (from here on “Spectral distribution”) is “absorb in UVB and UVA”. Also, in data set [1], the “Solubilities: Soluble, DMSO” value is “DMSO 2.7%”; the “Solubilities: Soluble, Transcutol” value is recorded as “Transcutol 0.1%”; the “Solubilities: Soluble (solvent in which the compound is soluble)” value was “DMC and AcOEt (PS) and MeOH (PS)”; the “Solubilities: Insoluble” value was “EtOH and Hexane and Myritol”.
In the case of `Fc1ccc(-c2nnc(-c3ccc(-c4nnc(-c5ccc(F)cc5)c(-c5ccc(F)cc5)n4)cc3)nc2-c2ccc(F)cc2)cc1` [WP89, 1,4-bis[5,6-(4,4′-difluoro)-diphenyl-1,2,4-triazin-3-yl]benzene], in data set [2], the “Maximum molar extinction coefficient UVA” value came to 47700 M⁻¹ cm⁻¹, the “Maximum specific absorbance UVA” value stood at 778, the “Wavelength of maximum molar extinction coefficient UVA” value is “at 330 nm” and the “Wavelength of maximum specific absorbance UVA” value was “at 330 nm”. In data set [3], the “Spectral distribution” value was “absorb in UVB and UVA”; the Absorption peaks is 330 nm. In addition, the “Solubilities: Soluble (solvent in which the compound is soluble)” value in data set [1] was “Ethyl acetate”.
On to `Cc1ccc(-c2nnc(-c3ccc(-c4nnc(-c5ccc(C)cc5)c(-c5ccc(C)cc5)n4)cc3)nc2-c2ccc(C)cc2)cc1` [WP39, 1,4-bis[5,6-(4,4′-dimethyl)-diphenyl-1,2,4-triazin-3-yl]benzene], for which, in data set [2], the “Maximum molar extinction coefficient UVA” value was 48200 M⁻¹ cm⁻¹, the “Maximum specific absorbance UVA” value is 808, the “Wavelength of maximum molar extinction coefficient UVA” value is “at 335 nm” and the “Wavelength of maximum specific absorbance UVA” value is reported as “at 335 nm”. Moreover, the “Spectral distribution” value in data set [3] was “absorb in UVB and UVA”. In addition, in data set [1], the “Solubilities: Soluble (solvent in which the compound is soluble)” value was “DMSO or hot DMF”; the “Solubilities: Insoluble” value is “Water and MeOH and CHCl3 and Acetone and Acetonitrile and Benzene”.
Regarding `Clc1ccc(-c2nnc(-c3ccc(-c4nnc(-c5ccc(Cl)cc5)c(-c5ccc(Cl)cc5)n4)cc3)nc2-c2ccc(Cl)cc2)cc1` [WP100, 1,4-bis[5,6-(4,4′-dichloro)-diphenyl-1,2,4-triazin-3-yl]benzene], in data set [2], the “Maximum molar extinction coefficient UVA” value came to 43400 M⁻¹ cm⁻¹, the “Maximum specific absorbance UVA” value is on record as 640, the “Wavelength of maximum molar extinction coefficient UVA” value is on record as “at 300 nm” and the “Wavelength of maximum specific absorbance UVA” value is “at 100 nm”. In addition, in data set [3], the “Spectral distribution” value was “absorb in UVB and UVA”; the Absorption peaks is 300 nm. Further, in data set [1], the “Solubilities: Soluble (solvent in which the compound is soluble)” value is listed as “Hot DMSO”; the “Solubilities: Insoluble” value was “DCM and Et2O and Toluene and Octanol and EtOH and Myritol and Transcutol”.
Take `Brc1ccc(-c2nnc(-c3ccc(-c4nnc(-c5ccc(Br)cc5)c(-c5ccc(Br)cc5)n4)cc3)nc2-c2ccc(Br)cc2)cc1` [WP52, 1,4-bis[5,6-(4,4′-dibromo)-diphenyl-1,2,4-triazin-3-yl]benzene]: in data set [2], the “Maximum molar extinction coefficient UVA” value was 57300 M⁻¹ cm⁻¹, the “Maximum specific absorbance UVA” value is on record as 669, the “Wavelength of maximum molar extinction coefficient UVA” value is reported as “at 330 nm” and the “Wavelength of maximum specific absorbance UVA” value is reported as “at 330 nm”. For the same compound, in data set [3], the “Spectral distribution” value was “absorb in UVB and UVA”; the Absorption peaks is on record as 330 nm. For the same compound, in data set [1], the “Solubilities: Soluble (solvent in which the compound is soluble)” value is reported as “DMSO or hot DMF”; the “Solubilities: Insoluble” value is “Water and MeOH and CHCl3 and Acetone and Acetonitrile and Benzene and Myritol and Transcutol”.
With `Oc1ccc(-c2nnc(-c3ccc(-c4nnc(-c5ccc(O)cc5)c(-c5ccc(O)cc5)n4)cc3)nc2-c2ccc(O)cc2)cc1` [WP35, 1,4-bis[5,6-(4,4′-dihydroxy)-diphenyl-1,2,4-triazin-3-yl]benzene], in data set [2], the “Maximum molar extinction coefficient UVA” value came to 27800 M⁻¹ cm⁻¹, the “Maximum molar extinction coefficient UVB” value stood at 29600 M⁻¹ cm⁻¹, the “Maximum specific absorbance UVA” value is listed as 460 and the “Maximum specific absorbance UVB” value is reported as 490. Moreover, in data set [2], the “Wavelength of maximum molar extinction coefficient UVA” value is listed as “at 355 nm”, the “Wavelength of maximum molar extinction coefficient UVB” value was “at 310 nm”, the “Wavelength of maximum specific absorbance UVA” value was “at 355 nm” and the “Wavelength of maximum specific absorbance UVB” value was “at 310 nm”. Moreover, in data set [3], the “Spectral distribution” value is “absorb in UVB and UVA”; the Absorption peaks was 355 nm. Further, in data set [1], the “Solubilities: Soluble, DMSO” value is reported as “DMSO 3.5%”; the “Solubilities: Soluble, Transcutol” value is recorded as “Transcutol 0.5%”; the “Solubilities: Insoluble” value was “MeOH and CHCl3 and Ethyl acetate and Hexane and Myritol”.
`CCCCCCCCCCCCCCCCCCOc1ccc(-c2nnc(-c3ccc(-c4nnc(-c5ccc(OCCCCCCCCCCCCCCCCCC)cc5)c(-c5ccc(OCCCCCCCCCCCCCCCCCC)cc5)n4)cc3)nc2-c2ccc(OCCCCCCCCCCCCCCCCCC)cc2)cc1` [WP38, 1,4-bis[5,6-(4,4′-di-octadecyloxy)-diphenyl-1,2,4-triazin-3-yl]benzene]: in data set [1], the “Solubilities: Soluble (solvent in which the compound is soluble)” value was “Benzene; also recorded: Toluene; also recorded: Myritol; also recorded: Transcutol”; the “Solubilities: Insoluble” value is “MeOH and DMC and AcOEt”.
